Source: ChEMBL document CHEMBL1201862, “PubChem BioAssay data set” (2004)
Activity calls are given as the source filed them.

What was measured:
[1] = biological target: T1, Neuropeptide Y receptor type 2 (Homo sapiens, UniProt P49146); experiment: NPY-Y2 antagonist potency, selectivity check, dose response, counter-screen for NPY-Y1 antagonist project, cell-based (AID 1278); type: functional
T1 sequence (P49146 whole entry): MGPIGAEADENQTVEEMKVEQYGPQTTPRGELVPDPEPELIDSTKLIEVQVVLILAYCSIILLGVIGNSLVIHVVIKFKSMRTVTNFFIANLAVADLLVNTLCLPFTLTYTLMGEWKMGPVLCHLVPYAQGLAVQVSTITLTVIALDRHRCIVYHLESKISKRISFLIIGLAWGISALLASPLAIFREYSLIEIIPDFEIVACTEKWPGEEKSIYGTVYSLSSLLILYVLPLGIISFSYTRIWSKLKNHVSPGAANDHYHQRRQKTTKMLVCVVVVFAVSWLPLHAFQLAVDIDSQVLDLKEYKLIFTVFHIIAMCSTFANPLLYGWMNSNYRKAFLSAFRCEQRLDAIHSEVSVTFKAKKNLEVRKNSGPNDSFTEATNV

[2] = biological target: T2, Neuropeptide Y receptor type 1 (Homo sapiens, UniProt P25929); experiment: NPY-Y1 receptor antagonist potency, dose response, cell-based (AID 1277); type: functional
T2 sequence (P25929 whole entry): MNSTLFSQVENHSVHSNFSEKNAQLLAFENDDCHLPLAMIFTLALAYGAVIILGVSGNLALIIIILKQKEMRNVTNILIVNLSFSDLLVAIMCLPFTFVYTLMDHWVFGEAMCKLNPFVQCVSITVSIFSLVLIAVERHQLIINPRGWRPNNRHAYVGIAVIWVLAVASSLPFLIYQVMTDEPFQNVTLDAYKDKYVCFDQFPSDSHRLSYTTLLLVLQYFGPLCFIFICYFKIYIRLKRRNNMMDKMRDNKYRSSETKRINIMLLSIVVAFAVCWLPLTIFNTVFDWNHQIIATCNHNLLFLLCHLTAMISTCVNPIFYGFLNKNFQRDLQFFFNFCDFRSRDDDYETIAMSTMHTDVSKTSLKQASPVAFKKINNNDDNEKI

[3] = biological target: ATP-sensitive inward rectifier potassium channel 1 (Homo sapiens, UniProt P48048); experiment: ROMK inhibition by analog compounds, SAR follow-up, cell-based, thallium flux, analog library (AID 435017); type: functional
[4] = biological target: T3, RNA-binding protein pos-1 (Caenorhabditis elegans, UniProt G5EF15); experiment: inhibitors of POS-1/mex-3 RNA binding, dose response, biochemical, fluorescence polarization (AID 1964);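 further: purified POS-1 fused to maltose binding protein made in E. coli; potency of compounds blocking POS-1 binding to fluorescent RNA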
T3 sequence (G5EF15 whole entry): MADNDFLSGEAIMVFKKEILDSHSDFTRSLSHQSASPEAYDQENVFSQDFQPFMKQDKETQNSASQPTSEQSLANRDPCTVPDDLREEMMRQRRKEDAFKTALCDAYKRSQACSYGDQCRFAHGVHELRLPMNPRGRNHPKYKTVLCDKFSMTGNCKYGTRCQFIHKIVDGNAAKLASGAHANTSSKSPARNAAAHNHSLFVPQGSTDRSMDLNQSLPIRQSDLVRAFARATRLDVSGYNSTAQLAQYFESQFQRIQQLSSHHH

[5] = biological target: T4, Bcl-2-related protein A1 (Mus musculus, UniProt Q07440); experiment: Bfl-1 inhibitors, primary screen, biochemical, fluorescence polarization, FITC-Bid, mouse (AID 432)
T4 sequence (Q07440 whole entry): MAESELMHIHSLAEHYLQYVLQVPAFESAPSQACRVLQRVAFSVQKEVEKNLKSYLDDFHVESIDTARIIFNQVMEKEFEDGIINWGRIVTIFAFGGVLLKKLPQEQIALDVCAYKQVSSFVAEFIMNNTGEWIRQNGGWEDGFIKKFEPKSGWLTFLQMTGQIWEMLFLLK

[6] = biological target: T5, Zinc finger protein mex-5 (Caenorhabditis elegans, UniProt Q9XUB2); experiment: MEX-5/TCR-2 RNA interaction inhibitors, dose response, biochemical, C. elegans, fluorescence polarization (AID 1960)
T5 sequence (Q9XUB2 whole entry): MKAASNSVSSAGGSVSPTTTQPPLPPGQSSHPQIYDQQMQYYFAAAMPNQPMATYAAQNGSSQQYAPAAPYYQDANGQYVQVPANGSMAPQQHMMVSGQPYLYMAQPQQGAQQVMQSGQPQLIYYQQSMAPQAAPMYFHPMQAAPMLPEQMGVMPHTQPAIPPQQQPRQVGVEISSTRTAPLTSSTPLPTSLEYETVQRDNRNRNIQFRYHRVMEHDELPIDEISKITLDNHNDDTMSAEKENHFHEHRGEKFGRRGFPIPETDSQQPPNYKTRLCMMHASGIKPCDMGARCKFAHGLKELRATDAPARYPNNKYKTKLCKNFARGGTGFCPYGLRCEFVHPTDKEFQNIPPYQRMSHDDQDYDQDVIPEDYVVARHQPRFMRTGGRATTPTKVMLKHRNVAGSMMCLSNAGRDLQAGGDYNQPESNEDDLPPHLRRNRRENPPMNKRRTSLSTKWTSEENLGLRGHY

[7] = biological target: 14-3-3 protein gamma (Homo sapiens, UniProt P61981); experiment: modulators of 14-3-3 gamma client binding – dose response (AID 711); type: functional
[8] = biological target: T4, Bcl-2-related protein A1; experiment: Bfl-1 inhibitors blocking BH3 peptide binding, confirmation, biochemical, TR-FRET, mouse Bfl-1 (AID 621);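 further: TR-FRET binding of GST-Bfl-1 to FITC-labelled Bid peptide via terbium antibody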
[9] = HIV-1 Env-mediated cell fusion inhibitors, dose response, CCR5-tropic Env (AID 2279); type: functional
[10] = biological target: Serine/threonine-protein phosphatase PP1-alpha catalytic subunit (Homo sapiens, UniProt P62136); experiment: PP1 phosphatase inhibitors, dose response, biochemical, fluorescence (AID 2403);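 further: phosphatase turnover of OMFP into fluorescent 3-O-methylfluorescein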
Sequence of Serine/threonine-protein phosphatase PP1-alpha catalytic subunit (P62136 whole entry): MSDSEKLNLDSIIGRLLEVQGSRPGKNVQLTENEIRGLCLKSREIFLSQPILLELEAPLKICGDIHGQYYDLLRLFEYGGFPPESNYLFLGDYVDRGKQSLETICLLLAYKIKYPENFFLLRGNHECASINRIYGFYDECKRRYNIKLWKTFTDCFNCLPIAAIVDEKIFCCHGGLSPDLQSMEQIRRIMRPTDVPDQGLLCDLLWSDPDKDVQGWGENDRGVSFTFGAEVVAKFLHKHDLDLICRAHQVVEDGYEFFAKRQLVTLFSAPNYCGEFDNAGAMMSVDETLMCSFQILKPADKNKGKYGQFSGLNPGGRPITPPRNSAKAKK

[11] = biological target: Prothrombin (Bos taurus, UniProt P00735); experiment: thrombin inhibition, dose response, biochemical, fluorescence polarization, uHTS hits (AID 602369); type: functional
[12] = biological target: 72 kDa type IV collagenase (Homo sapiens, UniProt P08253); experiment: Dose Response validation of uHTS RPN11 inhibitor hits using a MMP-2 Fluorescence assay.; type: functional
Sequence of 72 kDa type IV collagenase (P08253 whole entry): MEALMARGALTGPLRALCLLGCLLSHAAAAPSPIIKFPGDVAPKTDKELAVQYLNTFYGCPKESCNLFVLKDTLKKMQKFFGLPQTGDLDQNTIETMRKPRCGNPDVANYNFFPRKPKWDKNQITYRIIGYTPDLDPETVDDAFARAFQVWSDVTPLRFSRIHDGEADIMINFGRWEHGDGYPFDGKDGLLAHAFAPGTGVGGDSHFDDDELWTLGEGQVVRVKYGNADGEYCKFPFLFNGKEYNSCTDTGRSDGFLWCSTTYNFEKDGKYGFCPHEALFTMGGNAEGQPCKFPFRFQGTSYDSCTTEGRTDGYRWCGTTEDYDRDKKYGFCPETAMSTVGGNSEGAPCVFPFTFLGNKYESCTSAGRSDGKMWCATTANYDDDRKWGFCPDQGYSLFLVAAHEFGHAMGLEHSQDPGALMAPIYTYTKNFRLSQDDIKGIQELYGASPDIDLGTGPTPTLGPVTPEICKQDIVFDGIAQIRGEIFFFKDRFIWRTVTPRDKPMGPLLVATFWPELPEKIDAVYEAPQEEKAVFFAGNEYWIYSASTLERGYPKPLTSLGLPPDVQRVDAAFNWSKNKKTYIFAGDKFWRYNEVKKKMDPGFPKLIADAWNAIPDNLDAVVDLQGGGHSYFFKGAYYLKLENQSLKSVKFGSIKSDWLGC

[13] = biological target: T6, Small ubiquitin-related modifier 1 (Homo sapiens, UniProt P63165); experiment: inhibitors of SUMO1 peptide binding, dose response, biochemical, fluorescence polarization, uHTS hits (AID 624382); type: functional; conditions: read-out: IC50_Mean
T6 sequence (P63165 whole entry): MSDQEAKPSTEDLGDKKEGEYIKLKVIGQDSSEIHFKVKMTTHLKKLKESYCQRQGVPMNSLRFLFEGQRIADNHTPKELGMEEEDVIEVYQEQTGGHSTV

[14] = biological target: T6, Small ubiquitin-related modifier 1; experiment: inhibitors of SUMO1 partner interactions, dose response, biochemical, FRET (AID 624383); type: functional; conditions: read-out: IC50_Mean
[15] = biological target: Serine/threonine-protein phosphatase (Homo sapiens, UniProt Q9BPW0); experiment: Counterscreen for inhibitors of PP1: fluorescence-based biochemical high throughput dose response assay to identify inhibitors of Protein Phosphatase 5 (PP5). [Related pubchem assays: 2034 (Summary (PP5 inhibitors)), 1987 (PP5 inhibitors in singlate), 2235 (PP1 inhibitors in singlate)]
Sequence of Serine/threonine-protein phosphatase (Q9BPW0 whole entry): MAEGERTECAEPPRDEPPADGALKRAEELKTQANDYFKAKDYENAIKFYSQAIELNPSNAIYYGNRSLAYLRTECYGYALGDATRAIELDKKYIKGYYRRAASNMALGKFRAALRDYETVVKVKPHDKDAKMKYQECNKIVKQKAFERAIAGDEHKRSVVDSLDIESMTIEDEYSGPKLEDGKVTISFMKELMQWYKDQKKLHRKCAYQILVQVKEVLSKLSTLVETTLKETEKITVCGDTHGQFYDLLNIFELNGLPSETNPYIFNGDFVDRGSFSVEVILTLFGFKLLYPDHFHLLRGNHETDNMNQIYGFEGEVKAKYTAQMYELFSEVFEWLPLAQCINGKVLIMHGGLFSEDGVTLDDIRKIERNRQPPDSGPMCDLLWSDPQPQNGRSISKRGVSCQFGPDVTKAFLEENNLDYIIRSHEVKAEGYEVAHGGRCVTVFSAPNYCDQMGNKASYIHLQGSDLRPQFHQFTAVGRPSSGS

[16] = biological target: 26S proteasome non-ATPase regulatory subunit 14 (Homo sapiens, UniProt O00487); experiment: inhibition of proteasome subunit RPN11 – biochemical, fluorescence polarization, uHTS hits, confirmation (AID 602368); type: functional
[17] = biological target: Genome polyprotein (Hepatitis C virus, UniProt Q2Q167); experiment: HCV core protein dimerization inhibitors, dose response, biochemical, TR-FRET (AID 2159); design: species or system Hepacivirus hominis;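 further: blocks dimerization of HCV core protein measured by TR-FRET between tagged core106 pairs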
[18] = cells
[19] = A cytotoxicity screen of small molecule inhibitors of the PhoP region in Salmonella typhi identified in the primary screen. [Related pubchem assays: 1850, 1864, 1985 ]; type: functional
[20] = biological target: T7, Streptokinase A (Streptococcus pyogenes serotype M1, UniProt P10520); experiment: S. pyogenes streptokinase expression inhibitors, potency, dose response, plasminogen activation absorbance, OD405 (AID 1914); type: functional, Streptococcus pyogenes M1 GAS;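 further: secreted streptokinase activity via plasminogen activation per viability signal from cell pellet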
T7 sequence (P10520 whole entry): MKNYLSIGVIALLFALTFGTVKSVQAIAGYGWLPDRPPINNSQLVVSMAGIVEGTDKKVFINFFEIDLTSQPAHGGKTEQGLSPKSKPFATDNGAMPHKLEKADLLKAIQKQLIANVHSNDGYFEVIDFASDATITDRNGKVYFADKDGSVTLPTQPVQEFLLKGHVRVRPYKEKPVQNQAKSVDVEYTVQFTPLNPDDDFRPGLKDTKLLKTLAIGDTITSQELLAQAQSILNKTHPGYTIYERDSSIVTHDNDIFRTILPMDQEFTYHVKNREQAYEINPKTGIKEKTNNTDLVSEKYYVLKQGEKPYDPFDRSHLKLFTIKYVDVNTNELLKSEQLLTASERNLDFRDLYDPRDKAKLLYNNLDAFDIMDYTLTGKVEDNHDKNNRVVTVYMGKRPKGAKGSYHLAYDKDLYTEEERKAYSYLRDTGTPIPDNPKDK

[21] = system: HEK293; experiment: Fluorescence-based counterscreen for potentiators or agonists of NPY-Y2: cell-based high-throughput dose response assay to identify inhibitors of cyclic nucleotide gated ion channel (CNGC) activity. In this assay, the parental HEK293 cell line transfected with a cyclic-nucleotide gated ion channel (CNGC)-based cAMP sensor is used to measure inhibition of isoproterenol-induced CNGC activity by test compound.; type: functional; conditions: Homo sapiens;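 further: stimulus is 1 µM isoproterenol at EC100 plus PDE inhibitor Ro 20-1724 at 25 µM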
[22] = system: Streptococcus; experiment: Group A Streptococcus viability loss, dose response, counter-screen for streptokinase expression inhibitor project, luminescence, BacTiterGlo (AID 1915); type: functional, organism-based;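 further: potency for reduction of bacterial viability or growth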
[23] = system: Streptococcus sp. 'group A'; experiment: growth inhibition of control SK(-) GAS strain, dose response, counter-screen for streptokinase expression inhibitor project, luminescence, kanamycin, BacTiterGlo, confirmation (AID 1900); type: functional, organism-based
[24] = biological target: T2, Neuropeptide Y receptor type 1; experiment: Fluorescence-based counterscreen for agonists of NPY-Y2: cell-based high-throughput dose response assay for agonists of NPY-Y1.; type: functional
[25] = biological target: Paired box protein Pax-8 (Homo sapiens, UniProt Q06710); experiment: inhibitors of PAX8-driven TPO luciferase reporter, dose response, RMG-I cells, cherry-pick (AID 687027); type: functional, cell-based;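 further: luciferase reporter driven by Pax8 target thyroperoxidase promoter measured by SteadyGlo luminescence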
Sequence of Paired box protein Pax-8 (Q06710 whole entry, the tested form may be a part): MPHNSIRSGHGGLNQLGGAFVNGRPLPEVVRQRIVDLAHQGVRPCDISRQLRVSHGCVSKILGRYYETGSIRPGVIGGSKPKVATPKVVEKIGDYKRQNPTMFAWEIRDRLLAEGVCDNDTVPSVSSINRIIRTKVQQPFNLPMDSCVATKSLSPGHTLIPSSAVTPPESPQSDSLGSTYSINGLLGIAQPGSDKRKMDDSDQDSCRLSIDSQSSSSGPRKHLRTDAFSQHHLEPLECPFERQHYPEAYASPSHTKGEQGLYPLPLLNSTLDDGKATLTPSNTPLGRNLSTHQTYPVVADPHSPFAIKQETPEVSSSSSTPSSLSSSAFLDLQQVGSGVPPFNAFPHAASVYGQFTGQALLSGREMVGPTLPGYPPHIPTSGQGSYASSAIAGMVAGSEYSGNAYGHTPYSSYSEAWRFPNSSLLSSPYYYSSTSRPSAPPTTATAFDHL

[26] = biological target: T8, Fatty acid synthase (Homo sapiens, UniProt P49327); experiment: FAS thioesterase domain inhibitors, dose response, biochemical, endpoint fluorescence intensity, uHTS hits (AID 624327); type: functional;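 further: fluorescence from hydrolysis of an O-methyl fluorescein acyl ester substrate by the enzyme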
T8 sequence (P49327 whole entry, the tested form may be a part): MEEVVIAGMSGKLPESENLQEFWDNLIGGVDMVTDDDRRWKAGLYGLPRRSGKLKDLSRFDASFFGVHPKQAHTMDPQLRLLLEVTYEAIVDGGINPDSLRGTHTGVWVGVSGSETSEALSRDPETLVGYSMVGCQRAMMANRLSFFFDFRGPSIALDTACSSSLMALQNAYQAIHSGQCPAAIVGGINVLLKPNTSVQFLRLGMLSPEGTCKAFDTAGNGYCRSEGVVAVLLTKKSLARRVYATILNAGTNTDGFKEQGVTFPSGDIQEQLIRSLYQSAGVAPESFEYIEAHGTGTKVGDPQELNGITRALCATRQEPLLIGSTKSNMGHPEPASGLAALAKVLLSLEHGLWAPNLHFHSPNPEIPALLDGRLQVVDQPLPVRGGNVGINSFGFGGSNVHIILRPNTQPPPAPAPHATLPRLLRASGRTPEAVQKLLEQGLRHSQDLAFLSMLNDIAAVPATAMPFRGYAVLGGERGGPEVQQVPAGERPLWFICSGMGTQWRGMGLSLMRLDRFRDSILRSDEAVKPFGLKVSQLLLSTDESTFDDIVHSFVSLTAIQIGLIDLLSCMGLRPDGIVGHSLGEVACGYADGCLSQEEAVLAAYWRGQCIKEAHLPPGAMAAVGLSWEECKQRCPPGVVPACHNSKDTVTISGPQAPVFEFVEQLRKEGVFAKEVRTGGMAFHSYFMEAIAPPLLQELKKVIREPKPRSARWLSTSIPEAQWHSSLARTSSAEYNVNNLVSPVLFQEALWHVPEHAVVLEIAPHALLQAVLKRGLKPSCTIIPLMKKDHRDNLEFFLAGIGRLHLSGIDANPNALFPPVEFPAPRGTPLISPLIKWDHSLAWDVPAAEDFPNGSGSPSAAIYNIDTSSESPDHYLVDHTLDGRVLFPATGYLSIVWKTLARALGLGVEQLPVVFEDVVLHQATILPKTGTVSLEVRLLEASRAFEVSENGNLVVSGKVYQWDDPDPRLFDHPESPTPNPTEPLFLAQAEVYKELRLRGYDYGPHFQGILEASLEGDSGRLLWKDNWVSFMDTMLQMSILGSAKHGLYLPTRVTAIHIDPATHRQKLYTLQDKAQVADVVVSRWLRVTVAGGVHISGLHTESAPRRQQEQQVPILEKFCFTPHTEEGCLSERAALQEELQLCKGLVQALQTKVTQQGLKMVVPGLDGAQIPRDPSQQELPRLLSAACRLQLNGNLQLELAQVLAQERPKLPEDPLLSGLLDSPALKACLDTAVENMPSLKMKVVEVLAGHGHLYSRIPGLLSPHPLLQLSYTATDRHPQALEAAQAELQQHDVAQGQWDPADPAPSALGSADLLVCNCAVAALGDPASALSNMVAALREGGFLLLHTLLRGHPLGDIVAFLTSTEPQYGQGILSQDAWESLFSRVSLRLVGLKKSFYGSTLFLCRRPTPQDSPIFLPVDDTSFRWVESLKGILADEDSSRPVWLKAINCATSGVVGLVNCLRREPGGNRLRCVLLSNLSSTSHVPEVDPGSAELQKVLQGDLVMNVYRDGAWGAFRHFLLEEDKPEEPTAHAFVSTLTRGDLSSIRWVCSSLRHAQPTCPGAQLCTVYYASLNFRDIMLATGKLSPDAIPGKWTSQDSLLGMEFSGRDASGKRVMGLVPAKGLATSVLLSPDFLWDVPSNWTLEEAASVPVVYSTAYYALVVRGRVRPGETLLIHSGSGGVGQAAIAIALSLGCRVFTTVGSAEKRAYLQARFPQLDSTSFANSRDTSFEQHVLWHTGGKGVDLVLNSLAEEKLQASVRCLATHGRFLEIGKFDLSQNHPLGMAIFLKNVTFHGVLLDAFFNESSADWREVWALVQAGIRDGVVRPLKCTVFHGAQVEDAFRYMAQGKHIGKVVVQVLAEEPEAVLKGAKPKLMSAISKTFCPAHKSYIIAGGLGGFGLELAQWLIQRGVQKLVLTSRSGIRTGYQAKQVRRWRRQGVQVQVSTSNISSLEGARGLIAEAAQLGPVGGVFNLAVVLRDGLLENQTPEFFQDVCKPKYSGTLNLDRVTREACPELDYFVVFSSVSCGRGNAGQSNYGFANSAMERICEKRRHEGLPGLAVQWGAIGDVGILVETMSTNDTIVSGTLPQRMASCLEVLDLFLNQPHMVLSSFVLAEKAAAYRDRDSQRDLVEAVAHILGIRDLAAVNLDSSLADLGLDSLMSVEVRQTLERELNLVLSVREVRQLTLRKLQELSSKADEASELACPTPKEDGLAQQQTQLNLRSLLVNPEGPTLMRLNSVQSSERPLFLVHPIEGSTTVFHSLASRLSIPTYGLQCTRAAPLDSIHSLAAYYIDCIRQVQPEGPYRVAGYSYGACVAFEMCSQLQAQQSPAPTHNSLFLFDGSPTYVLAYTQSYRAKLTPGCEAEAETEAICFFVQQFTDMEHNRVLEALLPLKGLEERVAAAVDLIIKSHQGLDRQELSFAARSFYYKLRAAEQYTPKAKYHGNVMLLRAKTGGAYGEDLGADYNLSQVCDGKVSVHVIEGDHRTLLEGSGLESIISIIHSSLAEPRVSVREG

[27] = biological target: T1, Neuropeptide Y receptor type 2; experiment: Fluorescence-based cell-based high-throughput dose response assay for agonists of NPY-Y2. [Related pubchem assays: 1703 (Screening assay (CNGC inhibitors).), 1359 (Screening assay (NPY-Y2 potentiators or agonists).), 1304 (Screening assay (NPY-Y1 potentiators or agonists).), 1710 (Screening assay (NPY-Y2 agonists).), 1791 (Summary AID.)]; type: functional
[28] = biological target: T8, Fatty acid synthase; experiment: FAS thioesterase domain inhibitors, dose response, biochemical, kinetic fluorescence intensity (AID 624326); type: functional;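 further: rate of fluorescence rise from hydrolysis of a fluorogenic O-methyl fluorescein ester substrate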
[29] = system: Vero; experiment: Vero cell cytotoxicity, cytotoxicity control for flavivirus capping enzyme inhibitors (AID 588742); type: functional; conditions: Chlorocebus sabaeus
[30] = inhibitors of Bluetongue virus cytopathic effect, confirmation, arbovirus, BSR cells (AID 1250); type: functional;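 further: protection from viral cytopathic effect measured as cell viability by ATP luminescence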
[31] = biological target: Mothers against decapentaplegic homolog 3 (Homo sapiens, UniProt P84022); experiment: Smad3 binding inhibitors, lysate ELISA, dose response, cell lysate, secondary confirmation, chemiluminescent ELISA, HEK293 lysate (AID 1058); type: functional
Sequence of Mothers against decapentaplegic homolog 3 (P84022 whole entry): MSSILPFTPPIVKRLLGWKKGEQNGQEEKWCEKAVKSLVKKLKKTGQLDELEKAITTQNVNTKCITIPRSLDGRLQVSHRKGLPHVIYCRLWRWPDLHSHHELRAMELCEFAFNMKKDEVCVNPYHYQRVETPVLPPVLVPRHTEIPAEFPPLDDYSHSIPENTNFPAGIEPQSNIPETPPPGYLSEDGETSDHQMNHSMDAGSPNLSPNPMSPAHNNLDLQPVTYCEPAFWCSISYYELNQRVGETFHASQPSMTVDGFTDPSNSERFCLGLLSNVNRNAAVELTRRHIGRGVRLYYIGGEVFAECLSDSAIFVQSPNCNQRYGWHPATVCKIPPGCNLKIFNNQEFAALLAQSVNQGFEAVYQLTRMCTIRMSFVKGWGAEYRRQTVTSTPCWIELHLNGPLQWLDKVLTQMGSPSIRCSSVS

[32] = biological target: T1, Neuropeptide Y receptor type 2; type: functional, cell-based
[33] = biological target: T2, Neuropeptide Y receptor type 1; type: functional
[34] = biological target: Lytic switch protein BZLF1 (Epstein-Barr virus (strain B95-8) (HHV-4) (Human herpesvirus 4), UniProt P03206); experiment: EBV ZTA inhibitors, dose response, counter-screen for EBNA-1 inhibitor project, biochemical, fluorescence polarization, Epstein-Barr virus, 1536-well (AID 2377); design: species or system human gammaherpesvirus 4;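 further: fluorescence polarization of Cy5-labelled ZRE DNA probe bound by purified Zta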
[35] = biological target: Epstein-Barr nuclear antigen 1 (Epstein-Barr virus (strain B95-8) (HHV-4) (Human herpesvirus 4), UniProt P03211); experiment: EBNA-1 inhibitors, dose response, biochemical, fluorescence polarization, 1536-well (AID 2381); design: species or system human gammaherpesvirus 4;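 further: fluorescence polarization of a Cy5 DNA probe bound by EBNA-1 protein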

CNCc1cc(Cl)cc(OC)c1OC(C)C
IC50 [1]: > 35 µM (not active)
IC50 [2]: > 35 µM (not active)

O=[N+]([O-])c1ccc(CN2CCOCCOCCN(Cc3ccc([N+](=O)[O-])cc3)CCOCC2)cc1
IC50 [3]: 0.273 µM (active)

Cc1ccc(C2C3CN(C(C)C)CC=C3C(C#N)=C(N)C2(C#N)C#N)cc1 (stereo not given)
EC50 [4]: 7.15 µM (inconclusive)
IC50 [5]: > 100 µM (not active)
EC50 [6]: 8.29 µM (inconclusive)
IC50 [7]: > 50 µM (not active)
IC50 [8]: > 100 µM (not active)

COc1ccc(C(=O)/C=C/c2cccc(OCc3ccccc3)c2)cc1CSCC(=O)O
IC50 [9]: 18.7 µM (active)

CCOc1ccc(NC(=O)c2ccc(NC(=O)COC(=O)c3ccc(NC(=O)CC#N)cc3)cc2)cc1
IC50 [10]: 6.8 µM (active)
IC50 [11]: 55.4 µM (active)
IC50 [12]: > 100 µM (inactive)
IC50 [13]: > 66.6 µM (inactive)
IC50 [14]: 2.11 µM (active)
IC50 [15]: > 67 µM (not active)
IC50 [16]: 15.9 µM (active)
IC50 [17]: > 49.8 µM (not active)

CCOc1ccc2nc(NC(=O)C(CCSC)NS(=O)(=O)c3cccs3)sc2c1 (stereo not given)
IC50 [18]: 2.48 µM (active)

COc1cc(C)c(Cl)cc1S(=O)(=O)n1cnc(C)c1
EC50 [19]: > 50 µM (active)

C=CCN1C(=O)/C(=C/c2ccc(OC(C)=O)c(OCC)c2[N+](=O)[O-])SC1=S
EC50 [20]: > 150 µM (not active)
EC50 [21]: > 11.8 µM (not active)
EC50 [22]: 2.63 µM (active)
EC50 [23]: 1.32 µM (active)
EC50 [24]: 14.8 µM (not active)
AC50 [25]: 5.91 µM (active)
IC50 [26]: 5.92 µM (active)
EC50 [27]: 18.4 µM (not active)
IC50 [28]: 2.87 µM (active)

CCOc1ccc(CNc2ccc3c(c2)nc(C)n3C)cc1
CC50 [29]: > 40 µM (active)
IC50 [30]: 26.6 µM (active)

COc1ccc(C(c2cc3c(cc2O)OCO3)N2CCN(C(c3ccc(OC)cc3)c3cc4c(cc3O)OCO4)CC2)cc1 (stereo not given)
IC50 [31]: 36.1 µM (not active)

N=c1n(Cc2ccc(Cl)cc2)c2ccccc2n1CC(O)c1ccco1 (stereo not given)
IC50 [32]: > 35 µM (not active)
IC50 [33]: > 35 µM (not active)

N#C/C(=C\c1cn(Cc2ccccc2F)c2ccccc12)C(=O)NCc1ccco1
IC50 [34]: > 111 µM (not active)
IC50 [35]: 6.53 µM (active)
